The text below walks through data of PubChem BioAssay AID1194 (EPA DSSTox, 2008).

Active and inactive are the calls of the source.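 Rule for the calls: active = chemicals rated mutagenic or weakly mutagenic in the Salmonella bacterial test by one literature review, or positive overall by another; inconclusive = no clear call, values can overlap the other calls; inactive = the rest.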

The data set has as its system Salmonella typhimurium Ames mutagenicity, literature compiled. Nature of the data set: DSSTox (CPDBAS) Carcinogenic Potency Database Salmonella Mutagenicity. In outline: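 Literature-compiled Salmonella result: chemical called active if rated overall "mutagenic" or "weakly mutagenic" by Zeiger or overall "positive" by the EPA Gene-Tox Program.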

With `O=C1C=C2C(=CCOC2O)O1` (stereo unspecified), the outcome was “inactive; active”.

With `CCNc1nc(Cl)nc(NC(C)C)n1`, the outcome is “inactive; active”.

Consider `Nc1c(Cl)cc([N+](=O)[O-])cc1Cl`, for which the outcome was active.

Regarding `C=C(Cl)Cl`, the outcome is “active; inactive”.

`C/C=C/c1ccc2c(c1)OCO2`: the outcome was “inactive; active”.

For `CC(C)=CCC/C(C)=C/C=O`, the outcome was “inactive; active”.

With `c1ccc2c(c1)[nH]c1cnccc12`, the result was active.

On to `CN(C)C(=O)Cl`, for which the outcome was active.

Regarding `ClC(Cl)(Cl)Cl`, the outcome is “inactive; active”.

Turning to `O=NN1CCN(N=O)CC1`, the outcome is “active; inactive”.

As for `CC1=CC(=C(c2ccc(N)cc2)c2ccc(N)cc2)C=CC1=N`, the outcome is “active; inactive”.

`CCOc1ccc2c(c1)C(C)=CC(C)(C)N2`: the outcome was “inactive; active”.

Turning to `CN(C)c1ccc(C(=O)c2ccc(N(C)C)cc2)cc1`, the outcome was “active; inactive”.

Consider `CCCN(N=O)C(=N)N[N+](=O)[O-]`, for which the outcome is “active; inactive”.

Turning to `Brc1c(Br)c(Br)c(Oc2c(Br)c(Br)c(Br)c(Br)c2Br)c(Br)c1Br`, the outcome was “inactive; active”.

In the case of `CN(C)N=Nc1ccccc1`, the result was active.

As for `C=CCc1ccc(OC)c(OC)c1`, the outcome is “inactive; active”.

Consider `CN(C)CCN(Cc1cccs1)c1ccccn1`, for which the outcome is “inactive; active”.

As to `CC(O)COC(C)(C)C` (stereo unspecified), the outcome was “active; inactive”.

Consider `[O]=[Mo](=[O])=[O]`, for which the outcome was “inactive; active”.

For `O=NN1CCC(=O)NC1=O`, the outcome was “active; inactive”.

On to `CC1(C)S[C@@H]2[C@H](NC(=O)[C@H](N)c3ccccc3)C(=O)N2[C@H]1C(=O)O`, for which the outcome was inactive.

Consider `CC1=C2C(=CO[C@@H](C)[C@@H]2C)C(=O)C(C(=O)O)=C1O`, for which the outcome is “inactive; active”.

On to `CC(=O)Nc1cccc2c1-c1ccccc1C2`, for which the outcome is “active; inactive”.

For the compound `Cc1ccc2ncccc2c1`, the result was active.

Regarding `Cc1c2ccccc2c(C)c2c1ccc1ccccc12`, the result was active.

Consider `CC(C)CN(N=O)C(=N)N[N+](=O)[O-]`, for which the outcome was active.

Take `c1ccc2occc2c1`: the outcome was “inactive; active”.

Regarding `COc1cc(CNC(=O)CCCC/C=C/C(C)C)ccc1O`, the outcome was “inactive; active”.

Turning to `Nc1ccc(Cl)c(N)c1`, the outcome was “active; inactive”.

Regarding `OCCO`, the outcome was inactive.

For `COc1c(Cl)c(Cl)c(Cl)c(Cl)c1Cl`, the outcome is “active; inactive”.

For the compound `Clc1ccc(C(c2ccccc2Cl)C(Cl)Cl)cc1` (stereo unspecified), the result was inactive.

On to `CCCCN(N=O)C(N)=O`, for which the outcome was active.

For the compound `Nc1ccc(N=Nc2ccccc2)c(N)n1`, the result was inactive.

With `[Cd+2].[Cl-].[Cl-]`, the outcome is “inactive; active”.

On to `Nc1nc(N)c2nc(-c3ccccc3)c(N)nc2n1`, for which the outcome was “inactive; active”.

For `NS(=O)(=O)c1cc2c(cc1Cl)NCNS2(=O)=O`, the outcome is “inactive; active”.

For the compound `Cc1cc(O)c(C)c2c1OC(C)(CCCC(C)CCCC(C)CCCC(C)C)CC2` (stereo unspecified), the outcome is “inactive; active”.

Regarding `S=P(N1CC1)(N1CC1)N1CC1`, the outcome is “active; inactive”.

`NCCCCCCCCCCC(=O)O`: the outcome is “inactive; active”.

With `NC(N)=NC(N)=NCCc1ccccc1`, the outcome was “inactive; active”.

For `O=C(O)COc1ccc(Cl)cc1Cl`, the outcome was inactive.

Turning to `Clc1cccc(-c2ccc(Cl)c(Cl)c2Cl)c1Cl`, the outcome was “inactive; active”.

With `O=C1O[C@H]([C@@H](O)CO)C(O)=C1O`, the result was inactive.

On to `N[C@@H](CCC(=O)O)C(=O)O`, for which the outcome was “inactive; active”.

In the case of `CCOC(=O)N(C)N=O`, the result was active.

Turning to `C1CC2OC2CC1C1CO1` (stereo unspecified), the result was active.

Regarding `Nc1cccc(N)c1`, the outcome was active.

Take `CCN(C)N=O`: the result was active.

Take `C=CC`: the outcome is “active; inactive”.

Regarding `CCSCC[C@H](N)C(=O)O`, the outcome was inactive.

For the compound `CC(=O)OC/C=C(\C)CCC=C(C)C`, the result was inactive.

For the compound `CNNC`, the result was active.

As for `COP(=O)(OC)OC=C(Cl)Cl`, the outcome is “active; inactive”.

Consider `Nc1ccc(Oc2ccc(N)cc2)cc1`, for which the outcome was active.

As to `CN(N=O)c1ccncc1`, the outcome was “inactive; active”.

In the case of `COc1ccc(N)cc1`, the outcome was “active; inactive”.

Take `[N-]=[N+]=CC(=O)OC[C@H](N)C(=O)O`: the outcome was active.

For the compound `CCNC(=S)NCC`, the outcome was inactive.

With `ClC(Br)Br`, the outcome was inactive.

As for `Cn1cc[nH]c1=S`, the outcome was “inactive; active”.

On to `Clc1ccccc1`, for which the outcome is “inactive; active”.

Consider `CCCCC1C(=O)N(c2ccccc2)N(c2ccccc2)C1=O`, for which the outcome was inactive.

For the compound `Nc1nc(N)nc(N)n1`, the outcome is “inactive; active”.

`[CH3][Hg][Cl]`: the outcome was “inactive; active”.

Take `COP(=S)(OC)Oc1ccc(SC)c(C)c1`: the outcome was “inactive; active”.

As for `Nc1ccc(N=Nc2ccc(-c3ccc(N=Nc4c(S(=O)(=O)O)cc5cc(S(=O)(=O)O)c(N=Nc6ccccc6)c(O)c5c4N)cc3)cc2)c(N)c1`, the result was active.

With `CCSCCC(N)C(=O)O` (stereo unspecified), the outcome was inactive.

Consider `C[N+](C)(C)CCO`, for which the outcome is “inactive; active”.

In the case of `CCCC(Cl)CCC(Cl)CCC(Cl)CCC(Cl)CCC(Cl)CCC(Cl)CCC(C)Cl` (stereo unspecified), the outcome was inactive.

In the case of `COc1ccc(C(c2ccc(OC)cc2)C(Cl)(Cl)Cl)cc1`, the outcome is “inactive; active”.

As to `O=NN(CCCl)C(=O)N[C@@H]1[C@@H](O)[C@H](O)[C@@H](CO)O[C@@H]1O`, the outcome was “active; inactive”.

In the case of `O.O.O.O.O.O.O.O=S(=O)([O-])[O-].[Co+2]`, the result was active.

Regarding `NC(=O)c1ccccc1C(N)=O`, the outcome was inactive.

For the compound `CNC[C@H](O)c1ccc(O)c(O)c1`, the outcome is “inactive; active”.

For `CCCCC(CC)COC(=O)COc1ccc(Cl)cc1Cl` (stereo unspecified), the result was inactive.

In the case of `N/C(=N\O)c1ccc([N+](=O)[O-])o1`, the result was active.

For `CC[N+](=O)[O-]`, the outcome was “inactive; active”.

With `COc1ccc(O)cc1`, the outcome was “inactive; active”.

As to `O=CCCCC=O`, the outcome was active.

Take `C[N+](=O)[O-]`: the outcome was “inactive; active”.

For the compound `C#C[C@]1(O)CC[C@H]2[C@@H]3CCc4cc(O)ccc4[C@H]3CC[C@@]21C`, the result was inactive.

In the case of `C/C=C/C=C/C(=O)O`, the result was inactive.

Turning to `CC(C)CON=O`, the outcome was “active; inactive”.

In the case of `Oc1ccc(Cl)cc1Cl`, the outcome is “inactive; active”.

In the case of `CC(C)[N+](=O)[O-]`, the result was active.

For the compound `CC(=O)C(N=Nc1ccc(-c2ccc(N=NC(C(C)=O)C(=O)Nc3ccccc3)c(Cl)c2)cc1Cl)C(=O)Nc1ccccc1` (stereo unspecified), the result was inactive.

On to `O=S1OCC2C(CO1)C1(Cl)C(Cl)=C(Cl)C2(Cl)C1(Cl)Cl` (stereo unspecified), for which the outcome is “inactive; active”.

Consider `CC(C)Oc1ccc(Nc2ccccc2)cc1`, for which the outcome was “inactive; active”.

Consider `O=[N+]([O-])c1ccc(-c2cscn2)o1`, for which the outcome was “active; inactive”.

Turning to `C=CBr`, the outcome is “active; inactive”.

For `O=C1C(Cl)=C(Cl)C(=O)C(Cl)=C1Cl`, the result was active.

In the case of `NC(=O)N(CC(=O)O)N=O`, the outcome was inactive.

On to `O=S(=O)(O)c1ccc2c(N=Nc3ccc(S(=O)(=O)O)c4ccccc34)c(O)c(S(=O)(=O)O)cc2c1`, for which the outcome was inactive.

As for `CCOP(=S)(OCC)Oc1nc(Cl)c(Cl)cc1Cl`, the result was inactive.

Take `CN(C)C(=O)Nc1ccc(Cl)cc1`: the outcome is “inactive; active”.

For `Cc1cc(N=Nc2c(O)ccc3ccccc23)c(S(=O)(=O)O)cc1Cl`, the result was active.

Consider `O=S(=O)(O)c1ccc(N=Nc2c(O)ccc3cc(S(=O)(=O)O)ccc23)cc1`, for which the outcome is “inactive; active”.

With `COS(C)(=O)=O`, the result was active.

Regarding `ClC(Cl)(Cl)C(Cl)(Cl)Cl`, the outcome was “inactive; active”.

Take `Cc1cc(Cc2ccc(N)c(C)c2)ccc1N`: the outcome was active.

`CCc1cc(C(N)=S)ccn1`: the outcome is “inactive; active”.

As for `O=[N+]([O-])c1ccc(Oc2ccc(Cl)cc2Cl)cc1`, the outcome was active.

With `O=[N+]([O-])c1ccc(NCCO)c(OCCO)c1`, the result was active.

For the compound `CCOC(=O)CC(SP(=O)(OC)OC)C(=O)OCC` (stereo unspecified), the result was inactive.

For the compound `N[C@@H](Cc1ccc(N(CCCl)CCCl)cc1)C(=O)O`, the outcome is “active; inactive”.

As for `CN(C)c1ccc(C(=C2C=CC(=[N+](C)C)C=C2)c2ccc(N(C)C)cc2)cc1`, the outcome is “inactive; active”.

Consider `NCCc1ccc(O)c(O)c1`, for which the result was active.

For the compound `CCCN(N=O)C(N)=O`, the outcome was active.

`Cc1cccc(C)c1N`: the result was active.

For `O=c1c(O)c(-c2ccc(O)c(O)c2)oc2cc(O)cc(O)c12`, the outcome is “active; inactive”.

On to `CC(=O)[O][Hg][c]1ccccc1`, for which the outcome was “inactive; active”.

`COc1cc(N=Nc2ccccc2)ccc1N`: the outcome was active.

For the compound `ClC1=C(Cl)[C@@]2(Cl)[C@@H]3[C@@H](Cl)[C@H](Cl)C[C@@H]3C1(Cl)C2(Cl)Cl`, the outcome was “inactive; active”.

With `OCc1ccco1`, the outcome was “inactive; active”.
